Patent US20030069285A1 (Recordati Ireland Limited, priority 2001, published 2003)

Assays:
isolated rat aorta = conditions: in vitro; even after the drug has been removed from the environment of the aortic tissue for 6 hours; cited from earlier work
[1] = Thermogravimetric analysis (TG and TGFTIR); assay type: physicochemical; conditions: heated in nitrogen stream at 10° C./min; only CO2 is present
Procedure: Each sample weighing 2 to 5 mg was placed in an aluminum crucible of an apparatus PERKIN ELMER TGS-2 Thermogravimetric System (Perkin-Elmer International, Inc., Rotkreuz, Switzerland) and heated in nitrogen stream at a rate of 10° C./min. The thermogravimetric analysis together with an IR analysis in Fourier transform was carried out according to the following operating modes. Each sample weighing 2 to 5 mg was placed in an aluminum crucible of an apparatus Netzsch Thermomicrobalance TG209 (Netzsch Gerätebau, Seib, Germany) coupled with a spectrometer in Fourier transform BRUKER FTIR Vector 22 (Spectrospin, Fällanden, Switzerland) and heated in nitrogen stream at a rate of 10° C./min.

Compound	isolated rat aorta response to high K+ (isolated rat aorta)	temperature above which degradation was observed [1]
COC(=O)C1=C(C)NC(C)=C(C(=O)OC(C)(C)CN(C)CCC(c2ccccc2)c2ccccc2)C1c1cccc([N+](=O)[O-])c1 (centres unmarked) [Lercanidipine, methyl 1,1,N-trimethyl-N-(3,3-diphenylpropyl)-2-aminoethyl 1,4-dihydro-2,6-dimethyl-4-(3-nitrophenyl)pyridine-3,5-dicarboxylate]	attenuated	–
lercanidipine hydrochloride-terbutyl methyl ether	–	above 180 °C
